Laboratory results taken from article PMC9284842, “Allosteric activation of the metabolic enzyme GPD1 inhibits bladder cancer growth via the lysoPC-PAFR-TRPV2 axis” (Journal of Hematology & Oncology, 2022).

How the values were obtained:
[1] = target: T1, GPD1 (Homo sapiens, UniProt P21695); test: microscale thermophoresis (Monolith NT.[…], Hill fit); format: binding
T1 construct: purchased recombinant protein (Proteintech Ag4471); Red-NHS dye labelled for MST; source of enzyme in activity assay not restated
T1 sequence (P21695 1-349): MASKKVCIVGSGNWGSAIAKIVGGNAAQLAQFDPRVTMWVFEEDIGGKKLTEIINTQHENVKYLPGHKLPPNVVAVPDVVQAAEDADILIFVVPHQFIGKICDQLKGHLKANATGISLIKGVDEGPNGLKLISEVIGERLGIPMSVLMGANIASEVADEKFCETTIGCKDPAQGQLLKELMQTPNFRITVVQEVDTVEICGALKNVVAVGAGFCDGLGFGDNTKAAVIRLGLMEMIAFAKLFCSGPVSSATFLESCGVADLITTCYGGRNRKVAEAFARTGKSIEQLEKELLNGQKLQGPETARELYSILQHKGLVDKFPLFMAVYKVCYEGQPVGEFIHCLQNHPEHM

[2] = target: T1, GPD1; test: NADH absorbance at […] nm, initial rate of DHAP reduction; format: biochemical; conditions: 200 uM NADH, 8 mM DHAP, 1 uM GPD1, 20 mM TEA, 0.1 mg/mL BSA, I = 0.12 (NaCl); activator, proposed allosteric

Kd [1]: 0.505 µM
Structure (SMILES): COc1cc(O)c2c(c1)oc(=O)c1c3cc(O)c(O)cc3oc21 [wedelolactone]
activation [2]: wedelolactone (WE) from Bioactive Compound Library Plus in MedChemExpress LLC had substantial activity
